Tests used:
C57BL/6 mice = assay: Cerulein-induced acute pancreatitis murine model; assay type: in vivo, mouse
From the text: Acute pancreatitis (AP) is a potentially life-threatening gastrointestinal disease, and its incidence has been increasing over the last few decades. The onset of the disease is thought to be triggered by intra-acinar cell activation of digestive enzymes that results in interstitial edema, inflammation and acinar cell death that often leads to a systemic inflammation response. […] The experimental procedure for the in vivo efficacy study followed already published protocols (Mol Pharmacol. 2015 August; 88(2):281-90)
In vivo efficacy study. Forty-one male C57BL/6 mice (eight week-old; approximately 24 g) were supplied by Envigo (Barcelona, Spain) (Ref. 16512). During the experimental procedure, animals were identified with permanent marker (tail code numbers). […] Animals were kept in an environmentally controlled room (ventilation, temperature 22±2° C. and humidity 35-65%) on a 12-h light/dark cycle. A period of 7 days of acclimatization underwent between the date of arrival and the start of the procedure. […] The maintenance diet was supplied by Harlan Interfauna Ibérica S. L. (2018 Harlan Teklad Global Diets). Diet will be provided to the animals ad libitum, but they were fasted overnight before first cerulein injection, and food was replaced after last cerulein injection. Tap water was supplied by CASSA (Servei d'Aigües de Sabadell) ad libitum. The animals were maintained in accordance with European Directive for the Protection of Vertebrate Animals Used for Experimental and other Scientific Purposes (86/609/EU). Decree 214/1997 of 30th July. Ministry of agriculture, livestock and fishing of the Autonomous Government of Catalonia, Spain. Royal Decree 53/2013 of 1st February (Spain). All the experimental procedures were approved by the Ethical Committee on human and animal experimentation (CEEAH) of Universitat Autònoma de Barcelona (UAB) (procedure number: 4107) and by the Animal Experimentation Commission of the Generalitat de Catalunya (Catalan Government) (DAAM: 10146). […]

[1] = In vitro determination of microsomal stability; assay type: in vitro ADME; settings: human microsomes, 37° C., samples at 0-60 min
Experimental: The human recombinant microsomes employed were purchased from Tebu-Xenotech. […] Samples (75 μL) were taken from each well at 0, 10, 20, 40 and 60 min and transferred to a plate containing 4° C. 75 μL acetonitrile and 30 μL of 0.5% formic acid in water were added for improving the chromatographic conditions. The plate was centrifuged (46000 g, 30 min) and supernatants were taken and analyzed in a UPLC-MS/MS (Xevo-TQD, Waters) by employing a BEH C18 column and an isocratic gradient of 0.1% formic acid in water:0.1% formic acid acetonitrile (60:40). The metabolic stability of the compounds was calculated from the logarithm of the remaining compounds at each of the time points studied.

amyloid plaques = assay: Thioflavin S staining of amyloid plaques in brain slices (5×FAD mice); assay type: in vivo, mouse; settings: 5×FAD male mice 6-month-old, 5 mg/kg, 4 weeks, mean ± SEM
From the text: 5×FAD (tg6799) is an early-onset mouse transgenic model which overexpress mutant human APP(695) with the Swedish (K670N, M671L), Florida (I716V) and London (V717I) Familial Alzheimer's Disease (FAD) mutations along with human PS1 harbouring two FAD mutations (M146L and L286V). The Tg6799 line used is the original hybrid B6SJL background, and this hybrid B6SJL strain is used as a control of healthy animals. The mouse Thy1 promoter regulates both transgenes to drive overexpression in the brain. 5×FAD mice recapitulate major features of AD amyloid pathology and is a useful model of intraneuronal Abeta-42 induced neurodegeneration with amyloid increase brain content and amyloid plaque formation and tau hyperphosphorylation (J Neurosci. 2006, 26(40), 10129-10140).
The test compound was dissolved in 1.8% hydroxypropyl-beta-cyclodextrin and concentration in water was calculated according to the weekly animal consumption to reach the precise daily dose. A freshly made weekly replaces the drinking solution. The amount of water that the animals drink was monitored weekly, by the cage, and drug concentration was adjusted every week to reach the precise dose. After 4 weeks of maintained treatment, mice were studied in the behavioural tests.
After NORT, animals were sacrificed and the whole hippocampus dissected or brain slices from control and treated mice obtained by using a cryostat. […]

## O=C(NC12CC3CC(Cl)(CC(C1)c1ccccc13)C2)N[C@H]1CC[C@H](Oc2ccc(C(=O)O)cc2)CC1 [Example 2, 4-[((1r,4r)-4-(3-(9-chloro-5,6,8,9,10,11-hexahydro-7H-5,9:7,11-dimethanobenzo[9]annulen-7-yl)ureido)cyclohexyl)oxy]benzoic acid]
C57BL/6 mice; both doses 0.1 and 0.3 mg/kg IP
  histologic analysis of pancreas (H&E), severity of cerulein-induced pancreatitis: ameliorated cerulein-induced effects
C57BL/6 mice; cerulein 50 μg/kg IP x12, single dose 0.3 or 0.1 mg/kg IP, only 0.3 mg/kg significant (p<0.01 vs Cerulein)
  body weight change at end of study: increased body weight
C57BL/6 mice; higher dose 0.3 mg/kg IP
  histologic analysis of pancreas (H&E), pancreatic damage, edema, neutrophils infiltration: more efficiently reversed the pancreatic damage, edema and neutrophils infiltration
[1]
  Microsomal stability (% remanent): 89%
Amyloid plaques
  Number of Aβ plaques: 292 ± 83

Reference: patent publication US20240182406A1, “COMPOUNDS AS SOLUBLE EPOXIDE HYDROLASE INHIBITORS” (UNIVERSITAT DE BARCELONA, priority 2021, published 2024)
